In patent publication US10562869B2, “Oxadiazole compounds” (REMYND NV, priority 2014, dated 2020) one finds EC50 data, which are given here for 28 compounds.

The test has as its system M17_3SYN cells. The test can be described thus: Paraquat-induced cytotoxicity (LDH) in α-synuclein over-expressing M17_3SYN neuroblastoma cells. The format is cell-based, human. The following applies: toxicity inhibition (LDH) in M17_3SYN cells challenged with 6 mM paraquat, 2 days, read-out: SYN EC50. The text has this:
A α-synuclein expression plasmid was constructed by subcloning the NcoI/XhoI fragment from 212T-SYN(WT) (Griffioen et al., Biochem Biophys Acta (2006) 1762(3):312-318) containing the cDNA of human wild type α-synuclein correspondingly into a standard mammalian expression vector pcDNA3.1 resulting in plasmid pcDNA3.1-SYNwt. Plasmids pcDNA3.1 and pcDNA3.1-SYNwt were transfected into human neuroblastoma cells (BE-M17; ATCC No. CRL-2267™) using lipofectamine reagent and subsequently, independent clonal cell lines with the plasmids stably integrated into the genome were selected by antibiotic resistance selection (Geneticin (G418)), resulting in cell lines M17.pcDNA3 and M17_3SYN. Overexpression of α-synuclein in the M17_3SYN cell line was confirmed by Western blot analysis.
Due to the high levels of α-synuclein, M17_3SYN cells were sensitive to paraquat, a well-known risk factor Parkinson's disease and of synuclein-dependent neuronal degeneration. Cytotoxicity of cells was measured by quantification of lactate dehydrogenase (LDH) levels. In dead cells, LDH leaked out of the cells into the medium due to a loss of plasma-membrane integrity.
[…], primary pre-cultures of M17.pcDNA3 (as possible control) and M17_3SYN cells were prepared, starting from a stock culture, at a density of 20.000-40.000 cells/cm2 in culture medium (Opti-MEM® Reduced Serum Medium with Phenol Red (Invitrogen, Cat. 31985-047) supplemented with 10% FCS, 1 mM sodium pyruvate, 1×NEAA, 500 μg/ml G418 and 0.5×antibiotic/antimycotic (ABAM)). 3 days later these primary pre-cultures were used as a starting point to make secondary pre-cultures at a density of 50.000-100.000 cells/cm^2. At the day of the experiment these secondary precultures were diluted to ˜0.5·10^6 cells/ml in detection medium (Opti-MEM® Reduced-Serum Medium without Phenol Red (Invitrogen, Cat. 11085-021) supplemented with 10% FCS, 1 mM sodium pyruvate, 1×NEAA, 500 μg/ml G418 and 0.5×ABAM) and 60 μL of this suspension was dispensed per well into a 96-well microtiter plate. After 3 hours of incubation at 37° C./5% CO2 an equal volume of detection medium containing a final concentration of 6 mM Paraquat was added and subsequently incubated for 2 days at 37° C./5% CO2. Then LDH activity was determined using the Promega Cytotox 96 Non-Radioactive cytotoxicity assay (Promega, Cat. G1780), according to the manufacturer's instructions. Cytotoxicity was defined as the ratio of LDH relative to the total LDH in the cells and supernatant.
The assay described above using the M17_3SYN cell line allowed screening compounds for their ability to decrease cytotoxicity in PQ-challenged cells. Compounds of the invention were tested for their ability to decrease toxicity at different concentrations, ranging from low non-effective concentrations to high effective concentrations. Afterwards, a dose-dependent inhibition curve was used to calculate the EC50. A compound was considered to be active in this test when it inhibited toxicity by more than 20% relative to untreated M17_3SYN cells at a concentration of 10 μM or lower.

[1] abbreviates: Homo sapiens, Neuroblastoma cell, 48 h.

Where two headings read alike, the source gives them in different places.

As for `CCOc1ccc(S(=O)(=O)N2CCN(c3nc(C(C)(C)c4ccc(F)cc4)no3)CC2)cc1` [Cmpd115, 1-(4-Ethoxy-benzenesulfonyl)-4-{3-[1-(4-fluoro-phenyl)-1-methyl-ethyl]-[1,2,4]oxadiazol-5-yl}-piperazine], the EC50 under setting [1] worked out at 54 nM.
The same measure, in the same setting: the same measure for `O=c1[nH]c2cc(S(=O)(=O)N3CCN(c4nc(Cc5cccc(Cl)c5)no4)CC3)ccc2o1` [Cmpd077, 5-{4-[3-(3-Chloro-benzyl)-[1,2,4]oxadiazol-5-yl]-piperazine-1-sulfonyl}-3H-benzooxazol-2-one]: 139 nM; for `COc1ccc(S(=O)(=O)N2CCN(c3nc(COc4ccc(Cl)cc4)no3)CC2)cc1` [Cmpd200, 3-((4-Chlorophenoxy)methyl)-5-(4-((4-methoxyphenyl)sulfonyl)piperazin-1-yl)-1,2,4-oxadiazole]: 22 nM.
Turning to `CC(C)Oc1ccc(S(=O)(=O)N2CCN(c3nc(Cc4cccc(F)c4)no3)CC2)cc1` [Cmpd096, 3-(3-Fluorobenzyl)-5-(4-((4-isopropoxyphenyl)sulfonyl)piperazin-1-yl)-1,2,4-oxadiazole], the EC50 was found to be 289 nM.
Regarding `CC(=O)Nc1ccc(S(=O)(=O)N2CCN(c3nc(Cc4cccc(F)c4)no3)CC2)cc1` [Cmpd086, N-(4-{4-[3-(3-Fluoro-benzyl)-[1,2,4]oxadiazol-5-yl]-piperazine-1-sulfonyl}-phenyl)-acetamide], the concentration for a half-maximal effect (EC50) under setting [1] is 522 nM.
In the case of `O=S(=O)(c1ccc(OC(F)F)cc1)N1CCN(c2nc(C(F)(F)c3ccccc3)no2)CC1` [Cmpd158, 1-(4-Difluoromethoxy-benzenesulfonyl)-4-[3-(difluoro-phenyl-methyl)-[1,2,4]oxadiazol-5-yl]-piperazine], the concentration giving a half-maximal response (EC50) under setting [1] worked out at 31 nM.
Still for that read-out and setting: the same measure for `O=S(=O)(c1cccc(C(F)(F)F)c1)N1CCN(c2nc(Cc3cccc(F)c3)no2)CC1` [Cmpd088, 1-[3-(3-Fluoro-benzyl)-[1,2,4]oxadiazol-5-yl]-4-(3-trifluoromethyl-benzenesulfonyl)-piperazine]: 1840 nM; for `O=S(=O)(c1ccc(OC(F)F)cc1)N1CCN(c2nc(Cc3cccc(F)c3)no2)CC1` [Cmpd092, 1-(4-Difluoromethoxy-benzenesulfonyl)-4-[3-(3-fluoro-benzyl)-[1,2,4]oxadiazol-5-yl]-piperazine]: 47 nM; for `O=S(=O)(c1ccc(OC(F)F)cc1)N1CCN(c2nc(Cc3ccccc3)no2)CC1` [Cmpd039, 1-(3-Benzyl-[1,2,4]oxadiazol-5-yl)-4-(4-difluoromethoxy-benzenesulfonyl)-piperazine]: 11 nM.
The same measure, in the same setting: the same measure for `Cc1ccc(-c2noc(N3CCN(S(=O)(=O)c4ccc(C(F)(F)F)cc4)CC3)n2)cc1` [Cmpd016, 3-(p-Tolyl)-5-(4-((4-(trifluoromethyl)phenyl)sulfonyl)piperazin-1-yl)-1,2,4-oxadiazole]: 9 nM; for `CCOc1ccc(S(=O)(=O)N2CCN(c3nc(Cc4ccc(Cl)cc4)no3)CC2)cc1` [Cmpd053, 1-[3-(4-Chloro-benzyl)-[1,2,4]oxadiazol-5-yl]-4-(4-ethoxy-benzenesulfonyl)-piperazine]: 31 nM.
On the same count and under the same terms, the same measure for `CCOc1ccc(S(=O)(=O)N2CCN(c3nc(C(C)(C)c4cccc(Cl)c4)no3)CC2)cc1` [Cmpd153, 1-{3-[1-(3-Chloro-phenyl)-1-methyl-ethyl]-[1,2,4]oxadiazol-5-yl}-4-(4-ethoxy-benzenesulfonyl)-piperazine]: 5 nM.
In the case of `CC(C)(c1cccc(Cl)c1)c1noc(N2CCN(S(=O)(=O)c3ccc(OC(F)F)cc3)CC2)n1` [Cmpd154, 1-{3-[1-(3-Chloro-phenyl)-1-methyl-ethyl]-[1,2,4]oxadiazol-5-yl}-4-(4-difluoromethoxy-benzenesulfonyl)-piperazine], the half-maximal effective concentration (EC50) under setting [1] is 7 nM.
`COc1ccc(S(=O)(=O)N2CCN(c3nc(C(F)(F)c4ccccc4)no3)CC2)cc1` [Cmpd156, 1-[3-(Difluoro-phenyl-methyl)-[1,2,4]oxadiazol-5-yl]-4-(4-methoxy-benzenesulfonyl)-piperazine]: under setting [1], the EC50 was determined as 5 nM.
Same read-out and setting: the same measure for `CC[C@@H](c1ccccc1)c1noc(N2CCN(S(=O)(=O)c3ccc(OC)cc3)CC2)n1` [Cmpd050, 1-(4-Methoxy-benzenesulfonyl)-4-[3-((S)-1-phenyl-propyl)-[1,2,4]oxadiazol-5-yl]-piperazine]: 68 nM.
Same read-out and setting: the same measure for `CSc1ccc(S(=O)(=O)N2CCN(c3nc(CC(F)(F)F)no3)CC2)cc1` [Cmpd168, 5-(4-((4-(Methylthio)phenyl)sulfonyl)piperazin-1-yl)-3-(2,2,2-trifluoroethyl)-1,2,4-oxadiazole]: 198 nM; for `COc1ccc(S(=O)(=O)N2CCN(c3nc(C(C)(C)C)no3)CC2)cc1` [Cmpd209, 3-(Tert-butyl)-5-(4-((4-methoxyphenyl)sulfonyl)piperazin-1-yl)-1,2,4-oxadiazole]: 296 nM.
As to `CCC(c1ccccc1)c1noc(N2CCN(S(=O)(=O)c3ccc(OC(F)F)cc3)CC2)n1` (stereo not shown) [Cmpd046, 1-(4-Difluoromethoxy-benzenesulfonyl)-4-[3-(1-phenyl-propyl)-[1,2,4]oxadiazol-5-yl]-piperazine], under setting [1], the concentration giving a half-maximal response (EC50) came out at 59 nM.
Consider `CCOc1ccc(S(=O)(=O)N2CCN(c3nc(Cc4ccc(F)c(F)c4)no3)CC2)cc1` [Cmpd100, 1-[3-(3,4-Difluoro-benzyl)-[1,2,4]oxadiazol-5-yl]-4-(4-ethoxy-benzenesulfonyl)-piperazine], for which the half-maximal effective concentration (EC50) under setting [1] amounted to 130 nM.
`COc1ccc(S(=O)(=O)N2CCN(c3nc(Cc4ccccc4)no3)CC2)cc1` [Cmpd037, 1-(3-Benzyl-[1,2,4]oxadiazol-5-yl)-4-(4-methoxy-benzenesulfonyl)-piperazine]: the EC50 under setting [1] turned out to be 3 nM.
For `O=S(=O)(c1ccc(OC(F)F)cc1)N1CCN(c2nc(C(F)(F)c3ccc(Cl)cc3)no2)CC1` [Cmpd144, 1-{3-[(4-Chloro-phenyl)-difluoro-methyl]-[1,2,4]oxadiazol-5-yl}-4-(4-difluoromethoxy-benzenesulfonyl)-piperazine], under setting [1], the EC50 amounted to 145 nM.
For the compound `COc1ccc(S(=O)(=O)N2CCN(c3nc(Cc4cccc(Cl)c4)no3)CC2)cc1` [Cmpd072, 1-[3-(3-Chloro-benzyl)-[1,2,4]oxadiazol-5-yl]-4-(4-methoxy-benzenesulfonyl)-piperazine], under setting [1], the EC50 is 3 nM.
The same measure, in the same setting: then `O=S(=O)(c1ccc(OC(F)F)cc1)N1CCN(c2nc(C3(c4ccc(Cl)cc4)CC3)no2)CC1` [Cmpd140, 1-{3-[1-(4-Chloro-phenyl)-cyclopropyl]-[1,2,4]oxadiazol-5-yl}-4-(4-difluoromethoxy-benzenesulfonyl)-piperazine], with 44 nM.
Still for that read-out and setting: the same measure for `COc1ccc(S(=O)(=O)N2CCN(c3nc(CC4CC4)no3)CC2)cc1` [Cmpd159, 3-(Cyclopropylmethyl)-5-(4-((4-methoxyphenyl)sulfonyl)piperazin-1-yl)-1,2,4-oxadiazole]: 95 nM.
The same measure, in the same setting: the same measure for `CCOc1ccc(S(=O)(=O)N2CCN(c3nc(C4(c5ccc(Cl)cc5)CC4)no3)CC2)cc1` [Cmpd139, 1-{3-[1-(4-Chloro-phenyl)-cyclopropyl]-[1,2,4]oxadiazol-5-yl}-4-(4-ethoxy-benzenesulfonyl)-piperazine]: 356 nM.
On to `CCOc1ccc(S(=O)(=O)N2CCN(c3nc(Cc4ccccc4)no3)CC2)cc1` [Cmpd038, 1-(3-Benzyl-[1,2,4]oxadiazol-5-yl)-4-(4-ethoxy-benzenesulfonyl)-piperazine], for which, under setting [1], the concentration giving a half-maximal response (EC50) is 13 nM.
For `O=S(=O)(c1ccc(F)cc1)N1CCN(c2nc(Cc3cccc(F)c3)no2)CC1` [Cmpd085, 1-(4-Fluoro-benzenesulfonyl)-4-[3-(3-fluoro-benzyl)-[1,2,4]oxadiazol-5-yl]-piperazine], the EC50 under setting [1] is 250 nM.
Same read-out and setting: the same measure for `O=S(=O)(c1ccc(OC(F)(F)F)cc1)N1CCN(c2nc(Cc3cccc(F)c3)no2)CC1` [Cmpd087, 1-[3-(3-Fluoro-benzyl)-[1,2,4]oxadiazol-5-yl]-4-(4-trifluoromethoxy-benzenesulfonyl)-piperazine]: 497 nM.

As a reminder, the EC50 is the concentration that produces a half-maximal response.
